Laboratory results taken from patent US20210204544A1, “AGROCHEMICAL FORMULATIONS CONTAINING A POLYMERIC CRYSTAL GROWTH INHIBITOR” (priority 2018, published 2021).

Test: Crystal growth of micronized fluopyram crystals suspended in water, with or without polymeric crystal growth inhibitor, on accelerated aging (FIG. 1)
Assay type: physicochemical
Details: 54° C.; observed at 4 days, 35 days, then additional 2 weeks cycling -20° C./40° C.; Rhodoline 111 at 3% w/w, HPMC at 0.2% w/w
Method: FIG. 1 depicts the effect of polymeric crystal growth inhibitor on active ingredient while suspended in water. […] Polymeric crystal growth inhibitors were evaluated by suspending micronized fluopyram active ingredient crystal in water.

With `O=C(NCCc1ncc(C(F)(F)F)cc1Cl)c1ccccc1C(F)(F)F` [fluopyram, N-[2-[3-chloro-5-(trifluoromethyl)pyridin-2-yl]ethyl]-2-(trifluoromethyl)benzamide] the “crystal growth of fluopyram crystals suspended in water” value was “severe needle-shaped crystal growth”.
